Results taken from US10017791B2, “Coryneform bacterium transformant and process for producing 4-hydroxybenzoic acid or salt thereof using the same” (GREEN PHENOL DEVELOPMENT CO., LTD., priority 2014, dated 2018).
pIC50: −log10 of the molar value.

Key:
[1] = biological target: chorismate-pyruvate lyase of Azotobacter vinelandii (Azotobacter vinelandii, UniProt C1DK46); assay: Product inhibition of chorismate-pyruvate lyase activity by 4-HBA (IC50); type: biochemical; conditions: cell lysate supernatant of strain HBA19
Sequence of chorismate-pyruvate lyase of Azotobacter vinelandii (C1DK46 1-183): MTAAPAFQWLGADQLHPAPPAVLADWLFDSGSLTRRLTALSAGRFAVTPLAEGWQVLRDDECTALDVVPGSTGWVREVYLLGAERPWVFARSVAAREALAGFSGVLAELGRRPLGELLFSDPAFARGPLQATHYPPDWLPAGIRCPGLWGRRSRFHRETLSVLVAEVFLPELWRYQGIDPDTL
Experimental: (§1) Each kind of the bacterial cells cultured and proliferated as above was collected by centrifugation (8,000 rpm, 4° C., 10 minutes). After disrupting the bacterial cells by sonication, centrifugation (15,000 rpm, 4° C., 20 minutes) was performed. Using the supernatant of the cell lysate as a crude enzyme liquid, chorismate-pyruvate lyase activity was determined by the following method. The crude enzyme liquid, 50 mM Tris-HCl (pH 7.5), 0.5 mM of chorismate Ba salt, 0.2 mM of NADH, 0.2 M of NaCl and 5 units of lactate dehydrogenase were mixed, the reaction was allowed to proceed at 33° C., and the decrease in absorbance of NADH at 340 nm was monitored to analyze the initial rate of the reaction. From the initial rate of the reaction and the protein concentration, the specific activity was calculated (the amount of the enzyme that produces 1 μmol of 4-HBA per minute was defined as 1 unit). (After the reaction mixture was filtered, the resulting 4-HBA was subjected to HPLC for direct detection of the peak of 4-HBA (Cosmosil C18 ARII made by Nacalai Tesque, mobile phase: 20% methanol and 0.07% perchloric acid) to separately confirm that the two assay methods were similar in quantitative performance.)
(§2) Using the supernatants of the cell lysates of the strains of HBA-1 to HBA-21 prepared in Example 2, inhibition by the product, 4-HBA, was examined.

[2] = biological target: chorismate-pyruvate lyase of Citrobacter koseri (Citrobacter koseri, UniProt A8AN89); assay: as above; type: biochemical; conditions: cell lysate supernatant of strain HBA14
Sequence of chorismate-pyruvate lyase of Citrobacter koseri (A8AN89 whole entry, looked up): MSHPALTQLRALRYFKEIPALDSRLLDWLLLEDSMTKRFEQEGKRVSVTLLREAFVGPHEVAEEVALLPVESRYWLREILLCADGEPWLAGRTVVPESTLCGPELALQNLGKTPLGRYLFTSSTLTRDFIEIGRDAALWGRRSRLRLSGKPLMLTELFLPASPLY
Experimental: as §1, §2

[3] = biological target: T1, chorismate-pyruvate lyase of Cronobacter sakazakii (Cronobacter sakazakii, UniProt A7MPN9); assay: as above; type: biochemical; conditions: cell lysate supernatant of strain HBA12
T1 construct: 5′-[…]-3′
T1 sequence (A7MPN9 whole entry, looked up): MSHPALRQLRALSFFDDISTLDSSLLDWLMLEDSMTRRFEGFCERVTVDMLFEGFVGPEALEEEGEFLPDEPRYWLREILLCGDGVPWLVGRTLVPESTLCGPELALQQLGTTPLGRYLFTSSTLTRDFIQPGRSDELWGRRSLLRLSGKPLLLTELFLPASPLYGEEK
Experimental: as §1, §2

[4] = biological target: chorismate-pyruvate lyase of Cupriavidus taiwanensis (Cupriavidus taiwanensis, UniProt B3R6T5); assay: as above; type: biochemical
Sequence of chorismate-pyruvate lyase of Cupriavidus taiwanensis (B3R6T5 entry or part of it): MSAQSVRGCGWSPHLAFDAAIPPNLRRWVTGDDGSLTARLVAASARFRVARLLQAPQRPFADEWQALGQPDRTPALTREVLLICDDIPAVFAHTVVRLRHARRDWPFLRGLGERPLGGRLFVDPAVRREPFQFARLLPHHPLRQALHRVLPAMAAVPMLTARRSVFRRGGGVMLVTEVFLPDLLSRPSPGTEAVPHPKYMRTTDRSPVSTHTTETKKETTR
Experimental: as §1, §2

[5] = biological target: chorismate-pyruvate lyase of Enterobacter aerogenes (Klebsiella aerogenes, UniProt A0A0H3FPH2); assay: as above; type: biochemical; conditions: cell lysate supernatant of strain HBA15
Sequence of chorismate-pyruvate lyase of Enterobacter aerogenes (A0A0H3FPH2 entry or part of it): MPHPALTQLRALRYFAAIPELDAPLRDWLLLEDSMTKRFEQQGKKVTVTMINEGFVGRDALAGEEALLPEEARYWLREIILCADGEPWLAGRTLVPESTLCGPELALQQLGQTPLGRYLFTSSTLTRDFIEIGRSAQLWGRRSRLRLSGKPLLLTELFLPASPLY
Experimental: as §1, §2

[6] = biological target: chorismate-pyruvate lyase of Enterobacter cloacae (Enterobacter cloacae, UniProt A0A0H3CH24); assay: as above; type: biochemical; conditions: cell lysate supernatant of strain HBA16
Sequence of chorismate-pyruvate lyase of Enterobacter cloacae (A0A0H3CH24 entry or part of it): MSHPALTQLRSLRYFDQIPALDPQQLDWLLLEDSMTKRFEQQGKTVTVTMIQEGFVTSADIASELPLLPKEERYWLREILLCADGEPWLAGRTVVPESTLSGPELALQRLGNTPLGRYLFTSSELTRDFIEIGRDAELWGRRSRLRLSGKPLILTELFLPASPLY
Experimental: as §1, §2

[7] = biological target: T2, chorismate-pyruvate lyase of Escherichia coli (Escherichia coli, UniProt P26602); assay: as above; type: biochemical; conditions: cell lysate supernatant of strain HBA8
T2 construct: made in house; host or cells: Corynebacterium glutamicum R (crude cell-lysate supernatant)
T2 sequence (P26602 whole entry): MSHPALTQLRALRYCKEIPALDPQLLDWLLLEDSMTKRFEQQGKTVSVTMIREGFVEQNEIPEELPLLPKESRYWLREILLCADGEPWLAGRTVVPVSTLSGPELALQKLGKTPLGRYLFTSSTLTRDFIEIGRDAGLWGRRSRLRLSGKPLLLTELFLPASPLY
Experimental: as §1, §2

[8] = biological target: chorismate-pyruvate lyase of Escherichia fergusonii (Escherichia fergusonii, UniProt B7LL11); assay: as above; type: biochemical; conditions: cell lysate supernatant of strain HBA9
Sequence of chorismate-pyruvate lyase of Escherichia fergusonii (B7LL11 entry or part of it): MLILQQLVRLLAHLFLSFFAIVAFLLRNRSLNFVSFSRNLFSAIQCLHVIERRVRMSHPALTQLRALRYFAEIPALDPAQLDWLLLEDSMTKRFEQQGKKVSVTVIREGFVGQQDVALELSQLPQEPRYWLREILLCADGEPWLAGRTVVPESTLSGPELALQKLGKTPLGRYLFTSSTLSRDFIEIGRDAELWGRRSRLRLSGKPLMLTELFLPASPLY
Experimental: as §1, §2

[9] = biological target: chorismate-pyruvate lyase of Morganella morganii (Morganella morganii, UniProt M1SIE1); assay: as above; type: biochemical; conditions: cell lysate supernatant of strain HBA18
Sequence of chorismate-pyruvate lyase of Morganella morganii (M1SIE1 entry or part of it): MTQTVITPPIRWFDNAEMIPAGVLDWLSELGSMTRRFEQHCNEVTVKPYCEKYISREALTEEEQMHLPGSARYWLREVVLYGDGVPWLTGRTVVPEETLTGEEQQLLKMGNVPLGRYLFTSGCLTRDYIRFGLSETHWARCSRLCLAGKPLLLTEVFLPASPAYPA
Experimental: as §1, §2

[10] = biological target: chorismate-pyruvate lyase of Pantoea ananatis (Pantoea ananatis, UniProt A0ACE3JNM4); assay: as above; type: biochemical; conditions: cell lysate supernatant of strain HBA1
Sequence of chorismate-pyruvate lyase of Pantoea ananatis (A0ACE3JNM4 1-170): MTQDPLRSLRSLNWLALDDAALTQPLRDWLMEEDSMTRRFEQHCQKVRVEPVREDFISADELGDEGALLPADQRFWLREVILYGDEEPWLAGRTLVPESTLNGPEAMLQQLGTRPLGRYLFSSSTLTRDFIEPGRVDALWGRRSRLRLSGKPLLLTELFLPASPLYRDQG
Experimental: as §1, §2

[11] = biological target: chorismate-pyruvate lyase of Providencia alcalifaciens (Providencia alcalifaciens, UniProt B6XE56); assay: as above; type: biochemical; conditions: cell lysate supernatant of strain HBA6
Sequence of chorismate-pyruvate lyase of Providencia alcalifaciens (B6XE56 1-167): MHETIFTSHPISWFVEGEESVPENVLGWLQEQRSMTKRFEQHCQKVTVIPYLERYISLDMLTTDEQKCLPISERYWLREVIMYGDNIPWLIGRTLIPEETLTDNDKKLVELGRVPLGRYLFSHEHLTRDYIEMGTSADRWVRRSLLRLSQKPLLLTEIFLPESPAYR
Experimental: as §1, §2

[12] = biological target: chorismate-pyruvate lyase of Providencia burhodogranariea (Providencia burhodogranariea, UniProt K8VY45); assay: as above; type: biochemical; conditions: cell lysate supernatant of strain HBA7
Sequence of chorismate-pyruvate lyase of Providencia burhodogranariea (K8VY45 entry or part of it): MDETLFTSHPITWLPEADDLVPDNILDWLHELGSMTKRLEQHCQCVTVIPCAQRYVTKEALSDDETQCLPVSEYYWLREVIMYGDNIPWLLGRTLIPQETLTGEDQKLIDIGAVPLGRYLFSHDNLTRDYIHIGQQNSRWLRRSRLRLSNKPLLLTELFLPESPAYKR
Experimental: as §1, §2

[13] = biological target: chorismate-pyruvate lyase of Providencia rustigianii (Providencia rustigianii, UniProt D1P752); assay: as above; type: biochemical; conditions: cell lysate supernatant of strain HBA2
Sequence of chorismate-pyruvate lyase of Providencia rustigianii (D1P752 1-167): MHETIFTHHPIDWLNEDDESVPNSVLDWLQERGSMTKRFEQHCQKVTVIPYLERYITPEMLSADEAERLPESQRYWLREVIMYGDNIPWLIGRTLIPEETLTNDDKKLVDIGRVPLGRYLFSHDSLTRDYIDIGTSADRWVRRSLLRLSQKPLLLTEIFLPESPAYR
Experimental: as §1, §2

[14] = biological target: chorismate-pyruvate lyase of Providencia sneebia (Providencia sneebia, UniProt K8VZZ4); assay: as above; type: biochemical; conditions: cell lysate supernatant of strain HBA4
Sequence of chorismate-pyruvate lyase of Providencia sneebia (K8VZZ4 1-168): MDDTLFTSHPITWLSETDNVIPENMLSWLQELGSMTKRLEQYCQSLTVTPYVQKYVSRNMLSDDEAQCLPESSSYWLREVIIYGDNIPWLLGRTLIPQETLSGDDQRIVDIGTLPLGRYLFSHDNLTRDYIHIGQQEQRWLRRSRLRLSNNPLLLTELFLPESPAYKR
Experimental: as §1, §2

[15] = biological target: chorismate-pyruvate lyase of Providencia stuartii (Providencia stuartii, UniProt A0A1S1HSD5); assay: as above; type: biochemical; conditions: cell lysate supernatant of strain HBA3
Sequence of chorismate-pyruvate lyase of Providencia stuartii (A0A1S1HSD5 entry or part of it): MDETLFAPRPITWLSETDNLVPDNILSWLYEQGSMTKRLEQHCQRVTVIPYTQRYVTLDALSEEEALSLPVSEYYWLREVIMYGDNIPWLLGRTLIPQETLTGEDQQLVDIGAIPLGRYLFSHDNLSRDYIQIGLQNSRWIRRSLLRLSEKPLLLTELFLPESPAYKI
Experimental: as §1, §2

[16] = biological target: chorismate-pyruvate lyase of Pseudoalteromonas haloplanktis (Pseudoalteromonas haloplanktis, UniProt A0A9W4VR20, L6V); assay: as above; type: biochemical
Sequence of chorismate-pyruvate lyase of Pseudoalteromonas haloplanktis (A0A9W4VR20 entry or part of it L6V): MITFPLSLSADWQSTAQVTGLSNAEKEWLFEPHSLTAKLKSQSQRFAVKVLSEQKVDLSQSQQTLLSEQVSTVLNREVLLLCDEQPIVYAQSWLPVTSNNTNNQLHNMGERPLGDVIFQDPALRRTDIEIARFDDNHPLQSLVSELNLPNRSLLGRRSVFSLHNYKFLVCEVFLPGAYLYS
Experimental: as §1, §2

[17] = biological target: chorismate-pyruvate lyase of Pseudoalteromonas piscicida (Pseudoalteromonas piscicida, UniProt A0ABN5CDX6, M1V); assay: as above; type: biochemical; conditions: cell lysate supernatant of strain HBA10
Sequence of chorismate-pyruvate lyase of Pseudoalteromonas piscicida (A0ABN5CDX6 1-160, stated change not applied): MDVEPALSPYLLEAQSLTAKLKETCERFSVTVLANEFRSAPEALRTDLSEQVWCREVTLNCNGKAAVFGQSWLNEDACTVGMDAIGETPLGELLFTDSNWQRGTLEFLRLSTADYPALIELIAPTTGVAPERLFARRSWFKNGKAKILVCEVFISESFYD
Experimental: as §1, §2

[18] = biological target: chorismate-pyruvate lyase of Pseudomonas putida (Pseudomonas putida, UniProt Q88C66); assay: as above; type: biochemical; conditions: cell lysate supernatant of strain HBA17
Sequence of chorismate-pyruvate lyase of Pseudomonas putida (Q88C66 whole entry): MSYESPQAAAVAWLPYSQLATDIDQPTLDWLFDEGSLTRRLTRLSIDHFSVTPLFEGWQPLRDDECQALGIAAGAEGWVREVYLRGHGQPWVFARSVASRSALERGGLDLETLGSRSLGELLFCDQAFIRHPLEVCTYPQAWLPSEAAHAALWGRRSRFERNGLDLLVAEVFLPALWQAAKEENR
Experimental: as §1, §2

[19] = biological target: chorismate-pyruvate lyase of Shewanella putrefaciens (Shewanella putrefaciens, UniProt A0ABX8XB71); assay: as above; type: biochemical; conditions: cell lysate supernatant of strain HBA20
Sequence of chorismate-pyruvate lyase of Shewanella putrefaciens (A0ABX8XB71 entry or part of it): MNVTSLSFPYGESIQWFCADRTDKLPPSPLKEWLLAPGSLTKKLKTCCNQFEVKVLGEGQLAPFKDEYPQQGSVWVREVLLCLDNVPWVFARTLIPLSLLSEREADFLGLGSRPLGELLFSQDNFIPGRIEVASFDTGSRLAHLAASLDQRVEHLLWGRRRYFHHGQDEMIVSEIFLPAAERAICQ
Experimental: as §1, §2

[20] = tested on: Escherichia coli JM109; assay: Growth inhibition test in aerobic culture (influence of 4-HBA); type: cell-based; conditions: LB liquid medium, 37° C., OD610
Experimental: (§3) A growth inhibition test in aerobic culture was performed to examine the influence of 4-HBA on Corynebacterium glutamicum, Escherichia coli, Pseudomonas putida, and Rhodobacter sphaeroides. Pseudomonas putida S12, which was used for the test, is reported to be a solvent-resistant strain to produce 4-HBA via tyrosine.
Escherichia coli JM109 was applied to LB agar medium (1% polypeptone, 0.5% yeast extract, 0.5% NaCl and 1.5% agar) and was left stand in the dark at 37° C. for 15 hours.
An inoculation loop of the Escherichia coli JM109 grown on a plate as above was applied to LB liquid medium (1% polypeptone, 0.5% yeast extract, and 0.5% NaCl), and aerobic culture was performed with shaking at 37° C. for 13 hours.
The Escherichia coli JM109 grown in the above conditions was inoculated into 100 mL of LB liquid medium in such a way that the initial bacterial cell concentration would be OD=0.05, 4-HBA was added at the same time in such a way that the final concentration would be 0, 100, or 200 mM, and aerobic culture was performed with shaking at 37° C. The growth of the bacterial cells was determined by absorbance measurement at OD610.

[21] = tested on: Pseudomonas putida S12; assay: as above; type: cell-based; conditions: 200 mM 4-HBA, LB liquid medium, 30° C., OD610
Experimental: as §3
Pseudomonas putida S12 was applied to LB agar medium (1% polypeptone, 0.5% yeast extract, 0.5% NaCl and 1.5% agar) and was left stand in the dark at 30° C. for 15 hours.
An inoculation loop of the Pseudomonas putida S12 grown on a plate as above was applied to LB liquid medium (1% polypeptone, 0.5% yeast extract, and 0.5% NaCl), and aerobic culture was performed with shaking at 30° C. for 13 hours.
The Pseudomonas putida S12 grown in the above conditions was inoculated into 100 mL of LB liquid medium in such a way that the initial bacterial cell concentration would be OD610=0.05, 4-HBA was added at the same time in such a way that the final concentration would be 0, 100, 200, or 300 mM, and aerobic culture was performed with shaking at 30° C. The growth of the bacterial cells was determined by absorbance measurement at OD610.

[22] = tested on: Rhodobacter sphaeroides; assay: as above; type: cell-based; conditions: LB liquid medium, 30° C., OD610
Experimental: as §3
Rhodobacter sphaeroides was applied to LB agar medium (1% polypeptone, 0.5% yeast extract, 0.5% NaCl and 1.5% agar) and was left stand in the dark at 30° C. for 20 hours.
An inoculation loop of the Rhodobacter sphaeroides grown on a plate as above was applied to LB liquid medium (1% polypeptone, 0.5% yeast extract, and 0.5% NaCl), and aerobic culture was performed with shaking at 30° C. for 13 hours.
The Rhodobacter sphaeroides grown in the above conditions was inoculated into 100 mL of LB liquid medium in such a way that the initial bacterial cell concentration would be OD=0.1, 4-HBA was added at the same time in such a way that the final concentration would be 0, 100, or 200 mM, and aerobic culture was performed with shaking at 30° C. The growth of the bacterial cells was determined by absorbance measurement at OD610.

[23] = tested on: Corynebacterium glutamicum R; assay: as above; type: cell-based; conditions: for Growth of Corynebacterium glutamicum: aerobic, A liquid medium, 33° C., OD610
Experimental: as §3
Corynebacterium glutamicum was applied to A agar medium (2 g of (NH2)2CO, 7 g of (NH4)2SO4, 0.5 g of KH2PO4, 0.5 g of K2HPO4, 0.5 g of MgSO4.7H2O, 1 mL of 0.06% (w/v) Fe2SO4.7H2O+0.042% (w/v) MnSO4.2H2O, 1 mL of 0.02% (w/v) biotin solution, 2 mL of 0.01% (w/v) thiamin solution, 2 g of yeast extract, 7 g of vitamin assay casamino acid, 40 g of glucose, and 15 g of agar were suspended in 1 L of distilled water) and was left stand in the dark at 33° C. for 15 hours.
An inoculation loop of Corynebacterium glutamicum R strain grown on a plate as above was inoculated into a test tube containing 10 mL of A liquid medium (2 g of (NH2)2CO, 7 g of (NH4)2SO4, 0.5 g of KH2PO4, 0.5 g of K2HPO4, 0.5 g of MgSO4.7H2O, 1 mL of 0.06% (w/v) Fe2SO4.7H2O+0.042% (w/v) MnSO4.2H2O, 1 mL of 0.02% (w/v) biotin solution, 2 mL of 0.01% (w/v) thiamin solution, 2 g of yeast extract, 7 g of vitamin assay casamino acid, and 40 g of glucose were suspended in 1 L of distilled water) and was aerobically cultured with shaking at 33° C. for 15 hours.
The Corynebacterium glutamicum R strain grown in the above conditions was inoculated into 10 mL of A liquid medium in such a way that the initial bacterial cell concentration would be OD610=0.05, 4-HBA was added at the same time in such a way that the final concentration would be 0, 100, 200, 250, or 300 mM, and aerobic culture was performed with shaking at 33° C. The growth of the bacterial cells was determined by absorbance measurement at OD610.

O=C(O)c1ccc(O)cc1 [Strain 4-HBA, 4-hydroxybenzoic acid]
pIC50 [1]: 4.16
pIC50 [2]: 4.08
pIC50 [3]: 4.12
pIC50 [4]: 3.83
pIC50 [5]: 4.14
pIC50 [6]: 3.98
pIC50 [7]: 4.17
pIC50 [8]: 4.10
pIC50 [9]: 4.21
pIC50 [10]: 4.16
pIC50 [11]: 3.52
pIC50 [12]: 3.40
pIC50 [13]: 3.44
pIC50 [14]: 3.47
pIC50 [15]: 3.43
pIC50 [16]: 4.11
pIC50 [17]: 4.14
pIC50 [18]: 4.17
pIC50 [19]: 3.89
Growth of Escherichia coli ([20]; 100 mM 4-HBA): significantly affected
Growth of Escherichia coli ([20]; 200 mM 4-HBA): completely inhibited
Growth of Pseudomonas putida S12 [21]: completely inhibited
Growth of Rhodobacter sphaeroides ([22]; 100 mM 4-HBA): completely inhibited
Growth of Rhodobacter sphaeroides ([22]; 200 mM 4-HBA): completely inhibited
Growth of Corynebacterium glutamicum ([23]; 200 mM 4-HBA): able to grow
Growth, % of the OD610 of wild strain ([23]; 250 mM 4-HBA, 28 hours after the start of the culture, same extent as in the presence of 200 mM 4-HBA, data not shown): about 65%
Growth of Corynebacterium glutamicum ([23]; 250 mM 4-HBA): able to grow
